Laboratory results: patent US20240208998A1, “COMPOUNDS FOR USE IN THE TREATMENT OF HYPERPROLIFERATIVE DISORDERS” (FUNDACIÓ PRIVADA INSTITUT D'INVESTIGACIÓ ONCOLÓGICA DE VALL …, priority 2021, published 2024)

What was measured:
human TET2 construct = human TET2 construct (Homo sapiens, UniProt Q6N021, A1837G/A1840G/D1704G/D1842G/DEL1471-1702/DEL1708-1833/E1841G/F1706G/N1843S/Q1834G/V1836G); assay: Determination of TET2 binding by Surface Plasmon Resonance; settings: SPR, Biacore T200, 25° C., steady state fit to single site interaction model
Experimental: The human methylcytosine dioxygenase TET2 construct used (1129-2002 with residues 1471-1843 replaced by a 15-residue GS-linker) was expressed in a pET-28a(+)psumo vector with kanamycin resistance and an N-terminal His6 tag, and cloned in Rosetta D3 Escherichia coli competent cells. Transformed cells were cultured overnight in 10 mL of LB media supplied with kanamycin (50 μg/mL), then scaled to 1 L LB medium supplied with kanamycin (50 μg/mL) and grown at 37° C. Once the optical density (OD600) achieved 0.8, protein expression was induced with 0.4 mM isopropyl-β-thiogalactopyranoside (IPTG) overnight at 18° C. Cells were harvested by centrifugation (8,000 rpm, 4° C., 30 min) and the pellet obtained was resuspended in 15 mL of buffer A (50 mM Hepes, 150 mM NaCl, 30 mM imidazole, 2 mM β-mercaptoethanol (pH 8.0) supplemented with Pierce protease inhibitor cocktail (ThermoFisher Scientific)) and lysed by sonication (1 min 40 s: 10 cycles×10 s ON, 30 s OFF, A=35%, T=19° C.) followed by two consecutive centrifugations (8,000 rpm, 4° C., 30 min) to clarify the lysate.
The TET2 protein was purified using an AKTA Start system (GE Healthcare, Uppsala, Sweden) by two-step purification procedure: one His-affinity chromatography followed by a size exclusion chromatography. First, the protein fraction obtained during the lysis (supernatant) was applied to a 5 mL HisTrap HP column (GE Healthcare), washed with buffer A (50 mM Hepes, 150 mM NaCl, 30 mM imidazole, 2 mM […] (pH 8.0)) and the bound protein was eluted with buffer B (50 mM Hepes, 150 mM NaCl, 250 mM imidazole, 2 mM β-mercaptoethanol (pH 8.0)). The eluted protein-containing fractions were pooled and concentrated up to 4 mL for the last purification step: a size exclusion chromatography (HiPrep 16/60 Sephacryl S-100 HR) in 50 mM Hepes, 150 mM NaCl, 2 mM β-mercaptoethanol (pH 8.0). Finally, the mass and purity of the protein were verified by SDS-electrophoresis and mass spectrometry.
The binding of compounds of the examples was determined by Surface Plasmon Resonance (SPR) using a Biacore T200 SPR biosensor instrument (GE Healthcare, Uppsala, Sweden) at 25° C. The human TET2 construct was immobilized on a CM5 sensor chip using a standard covalent immobilization via amine coupling following the activation of the carboxymethyl dextran matrix of the sensor chip (injection of a solution containing 0.1 M N-hydroxysuccinimide and 0.4 M 1-ethyl-3-[3-(dimethylamino)propyl]carbodiimide hydrochloride at a flow rate of 15 μL/min for 7 min). The protein immobilization was achieved after the injection of 5 μg/mL TET2 in 10 mM sodium acetate (pH 4.0) at a flow rate of 5 μL/min. Unreacted activated groups of the dextran matrix were deactivated by injection of 1 M ethanolamine hydrochloride for 7 min at a flow rate of 15 μL/min. The corresponding matrix activation and protein immobilization were performed using as a running buffer a phosphate buffered saline solution (1.05× PBS: 10 mM phosphate, pH 7.4, 150 mM NaCl). The screened compounds were prepared in a 20 mM stock solution in DMSO and diluted with 1.05× PBS to achieve a final 5% (v/v) DMSO concentration. The running buffer of the interaction assays consisted of 1×PBS, 5% (v/v) DMSO. The flow rate used for the screening was 60 μL/min and the ligand association and dissociation times set were 60 s and 120 s, respectively.
For data analysis the software used was the Biacore T200 Evaluation software. Different corrections were applied. First, the nonspecific binding to the chip surface and the baseline drift were corrected subtracting the signals of a reference surface (where the immobilization procedure was carried out without proteins) to the signals obtained on the TET2 surface. Second, a series of solvent standards (solvent correction) were introduced to remove the differences derived from the DMSO. Finally, the background was corrected subtracting blank injections (blank subtraction) to the injected compound signals.

HL60 cell line = assay: Antiproliferative activity on HL60 cell line (CellTiter-Glo); type: cell-based; settings: Homo sapiens, HL-60; HL60, 72 h of treatment
Experimental: The human leukaemic cell line HL60 was grown in suspension in RPMI 1640 medium containing 10% (v/v) FBS and 1% (v/v) P/S (Life Technologies). […] Leukaemia cells were suspended at a density of 2×10^5 cells/mL in complete RPMI 1640 medium and 25 μL were seeded in each well (5×10^3 final total cells/well). A 10 μM solution of the compounds of examples 1, 12 and 21, and a 25 μM solution of all other compounds were prepared in complete medium, and then serially diluted (1:2) (as specified in Table 3 below). A solution of complete medium with DMSO was used as a vehicle control.
Twenty-five microliters of each serially diluted compound solution were added to the corresponding wells of the plate (50 μL of final volume/well). After 48 h of treatment, 50 μL of fresh 2X serially diluted compound solution was added to their corresponding wells (100 μL of final volume/well). After twenty-four additional hours, an equal volume (100 μL) of CellTiter-Glo Reagent (Promega) was added to each well, plates were shaken during 2 min and incubated at rt for 10 min. Luminescence was recorded using a Spark multimode microplate reader and an integration time of 1 s per well.

| Structure (SMILES) | Kd (human TET2 construct) | melting point | EC50 (HL60 cell line) |
| --- | --- | --- | --- |
| Cc1cn2cc(CC(=O)Nc3nc(-c4c(C)[nH]c5ccccc45)cs3)nc2s1 [Example 9, N-[4-(2-methyl-1H-indol-3-yl)thiazol-2-yl]-2-(2-methylimidazo[2,1-b]thiazol-6-yl)acetamide] | 9 µM | 140 to 142 °C |  |
| Cc1[nH]c2ccccc2c1-c1csc(NC(=O)Cc2cn3cc(F)ccc3n2)n1 [Example 8, 2-(6-fluoroimidazo[1,2-a]pyridin-2-yl)-N-[4-(2-methyl-1H-indol-3-yl)thiazol-2-yl]acetamide] | 10 µM | 114 to 119 °C | 0.072 µM |
| Cc1[nH]c2ccccc2c1-c1csc(NC(=O)Cc2c[nH]c3cc(Cl)ccc23)n1 [Example 16, 2-(6-chloro-1H-indol-3-yl)-N-[4-(2-methyl-1H-indol-3-yl)thiazol-2-yl]acetamide] | 7 µM | 175 to 177 °C |  |
| Cc1[nH]c2ccccc2c1-c1csc(NC(=O)Cc2cn(C)c3ccccc23)n1 [Example 11, 2-(1-methyl-1H-indol-3-yl)-N-[4-(2-methyl-1H-indol-3-yl)thiazol-2-yl]acetamide] | 2 µM | 139 to 142 °C | 2.2 µM |
| Cc1[nH]c2ccccc2c1-c1csc(NC(=O)CCc2c[nH]c3ccccc23)n1 [Example 14, 3-(1H-indol-3-yl)-N-[4-(2-methyl-1H-indol-3-yl)thiazol-2-yl]propanamide] | 14 µM | 133 to 135 °C | 13.4 µM |
| COc1ccc2[nH]cc(CC(=O)Nc3nc(-c4c(C)[nH]c5ccccc45)cs3)c2c1 [Example 6, 2-(5-methoxy-1H-indol-3-yl)-N-[4-(2-methyl-1H-indol-3-yl)thiazol-2-yl]acetamide] | 5 µM | 127 to 129 °C | 3.4 µM |
| Cc1[nH]c2ccccc2c1-c1csc(NC(=O)Cc2cc3ccccc3o2)n1 [Example 18, 2-(benzofuran-2-yl)-N-[4-(2-methyl-1H-indol-3-yl)thiazol-2-yl]acetamide] | 5 µM | 198 to 200 °C | 7.5 µM |
| Cc1[nH]c2ccccc2c1-c1csc(NC(=O)Cc2c[nH]cn2)n1 [Example 17, 2-(1H-imidazol-4-yl)-N-[4-(2-methyl-1H-indol-3-yl)thiazol-2-yl]acetamide] | 11 µM | 107 to 112 °C | 4.9 µM |
| Cc1[nH]c2ccccc2c1-c1csc(NC(=O)Cc2csc3nccn23)n1 [Example 2, 2-(imidazo[2,1-b]thiazol-3-yl)-N-[4-(2-methyl-1H-indol-3-yl)thiazol-2-yl]acetamide] | 15 µM | 160 to 163 °C | 4.3 µM |
| Cc1[nH]c2ccccc2c1-c1csc(NC(=O)Cc2cc3ccccc3[nH]2)n1 [Example 7, 2-(1H-indol-2-yl)-N-[4-(2-methyl-1H-indol-3-yl)thiazol-2-yl]acetamide] | 5 µM | 166 to 168 °C | 9.3 µM |
| Cc1[nH]c2ccccc2c1-c1coc(NC(=O)Cc2cn3ccsc3n2)n1 [Example 5, 2-(imidazo[2,1-b]thiazol-6-yl)-N-[4-(2-methyl-1H-indol-3-yl)oxazol-2-yl]acetamide] | 21 µM | 122 to 124 °C | 12.1 µM |
| Cc1[nH]c2ccccc2c1-c1csc(NC(=O)Cc2cn3c(C)csc3n2)n1 [Example 10, N-[4-(2-methyl-1H-indol-3-yl)thiazol-2-yl]-2-(3-methylimidazo[2,1-b]thiazol-6-yl)acetamide] | 11 µM | 145 to 148 °C | 3.3 µM |
| Cc1[nH]c2ccccc2c1-c1csc(NC(=O)Cc2nc3ccccc3o2)n1 [Example 3, 2-(benzo[d]oxazol-2-yl)-N-[4-(2-methyl-1H-indol-3-yl)thiazol-2-yl]acetamide] | 16 µM | 239 to 242 °C | 1.3 µM |
| Cc1[nH]c2ccccc2c1-c1csc(NC(=O)Cc2sc3ccccc3c2C)n1 [Example 20, N-[4-(2-methyl-1H-indol-3-yl)thiazol-2-yl]-2-(3-methylbenzo[b]thiophen-2-yl)acetamide] | 5 µM | 233 to 235 °C |  |

Next, values leading:

| Kd (human TET2 construct) | melting point | EC50 (HL60 cell line) | Structure (SMILES) |
| --- | --- | --- | --- |
| 16 µM | 157 to 158 °C |  | Cc1[nH]c2cc(F)ccc2c1-c1csc(NC(=O)Cc2cn3ccsc3n2)n1 [Example 26, N-[4-(6-fluoro-2-methyl-1H-indol-3-yl)thiazol-2-yl]-2-(imidazo[2,1-b]thiazol-6-yl)acetamide] |
| 1 µM | 160 to 162 °C | 0.912 µM | Cc1ccc2[nH]cc(-c3csc(NC(=O)Cc4cn5ccsc5n4)n3)c2c1 [Example 24, 2-(imidazo[2,1-b]thiazol-6-yl)-N-[4-(5-methyl-1H-indol-3-yl)thiazol-2-yl]acetamide] |
| 15 µM | 232 to 234 °C |  | O=C(Cc1cn2ccsc2n1)Nc1nc(-c2c[nH]c3ccc([N+](=O)[O-])cc23)cs1 [Example 23, 2-(imidazo[2,1-b]thiazol-6-yl)-N-[4-(5-nitro-1H-indol-3-yl)thiazol-2-yl]acetamide] |
| 67 µM | 125 to 126 °C |  | Cc1[nH]c2ccc(N)cc2c1-c1csc(NC(=O)Cc2cn3ccsc3n2)n1 [Example 28, N-[4-(5-amino-2-methyl-1H-indol-3-yl)thiazol-2-yl]-2-(imidazo[2,1-b]thiazol-6-yl)acetamide] |
| 13 µM | 143 to 144 °C |  | COc1ccc2[nH]c(C)c(-c3csc(NC(=O)Cc4cn5ccsc5n4)n3)c2c1 [Example 25, 2-(imidazo[2,1-b]thiazol-6-yl)-N-[4-(5-methoxy-2-methyl-1H-indol-3-yl)thiazol-2-yl]acetamide] |
|  | 150 to 151 °C |  | Cc1[nH]c2ccc([N+](=O)[O-])cc2c1-c1csc(NC(=O)Cc2cn3ccsc3n2)n1 [Example 27, 2-(imidazo[2,1-b]thiazol-6-yl)-N-[4-(2-methyl-5-nitro-1H-indol-3-yl)thiazol-2-yl]acetamide] |
| 2 µM | 233 to 235 °C | 0.266 µM | O=C(Cc1cn2ccsc2n1)Nc1nc(-c2c[nH]c3cccc(Br)c23)cs1 [Example 22, N-[4-(4-bromo-1H-indol-3-yl)thiazol-2-yl]-2-(imidazo[2,1-b]thiazol-6-yl)acetamide] |
